The subject of one data set is B16-F1 melanoma tumor. In words: B16-F1 melanoma tumor growth and survival in mice. Type of data set: in vivo, C57BL/6 (B6) mice. The settings on record: for survival of mice: day 28. The method, then: The following materials and methods were employed in the non-limiting Examples set out below. Tumor cells: Human cervical epitheloid carcinoma (HeLa), human renal clear cell carcinoma (CAKI-1), human malignant melanoma (RPMI-7951) and mouse malignant melanoma (B16-F1) were procured from ATCC (Rockville, MD) and maintained in vitro with MEM medium (Mediatech, Inc., Herndon, VA) supplemented with 10% heat-inactivated fetal bovine serum (American Qualex, San Clemente, CA), 10mM glutamine, 100 U/ml penicillin, and 100 µg/ml streptomycin (Sigma Chemicals, Saint Louis, MO) (complete medium). Normal cells: Normal human cervical ectoepithelial cells (CrEc-Ec), normal human mammary epithelial cells (HMEC) and normal human umbilical vein endothelial cells (HUVEC) were obtained from Clonetics (San Diego, CA) and cultured with the respective recommended tissue culture medium obtained from Clonetics. Peripheral Blood Mononuclear cells (PBMC): Heparinized venous blood was obtained from healthy adult volunteers and PBMC were separated by centrifugation over Ficoll-Hypaque (Pharmacia Biotech, Piscataway, NJ). The cells were washed three times with HBSS (Hanks Balanced Salt Solution) and finally resuspended in complete medium. Cell viability was assessed by trypan blue dye exclusion test and the cell number was adjusted to required concentration. Colorimetric MTT assay: Cytotoxic effects of the hypoestoxide compounds of formulas I and II (JO-4A) were determined in vitro by a colorimetric assay (Mosmann, T., J. Immunol. Methods, 65: 55-63, 1983). Briefly, 1000 cells per well (100 µl) in a 96-well flat-bottom plate were cultured either with the culture medium alone or with various concentrations of drug at 37°C, in a 5% CO2-95% air humidified incubator for 72 hours. At the end of the culture, 10 µl of 5 mg/ml sterile solution of 3-(4,5-Dimethylthiazol-2yl)-2,5-diphenyltetrazolium bromide (MTT) (Sigma Chemicals, Saint Louis, MO) in PBS was added per well and the incubation was resumed for an additional 4 hours. Acid-isopropanol (100 µl of 0.04 N HCl in isopropanol) was added to all wells and kept at room temperature for 30 minutes. Mixing with a multichannel pipetter dissolved the dark blue crystals and the absorbance was measured at 545-650 nm using an ELISA plate reader. Mice: Eight-week-old female C57BL/6 (B6) mice were purchased from Charles River Laboratories (Wilmington, MA. The measurement of tumor volume in mice: B16-F1 melanoma cells growing exponentially in vitro were harvested by 15 minutes incubation with 0.25% trypsin-EDTA solution (Irvin Scientific, Irvine, CA). The mice were given subcutaneous (s.c.) injections of 50,000 viable cells on the right side (Fidler, I. J. Cancer Research 35:218-224, 1975). Four days after injection, the mice in the experimental group were gavaged orally with various concentrations of JO-4A in 0.2 ml of water and the control group received water alone. The tumors were measured with a microcaliper, and the tumor volume was calculated by the formula: Length x width x height x 0.5236 (Jungwirth, A. et al., Proc. Natl. Acad. Sci. USA, 94:5810-5813, 1997). Statistical analysis: Students' t-test was used to calculate the level of significance.

In data set [1] the test system is cultured normal human PBMCs. As to the kind of experiment: Toxicity on PHA-activated normal human PBMCs, trypan blue dye exclusion. Type of data set: cell-based. The settings on record: 0.0001 µM - 0.5 µM, 7 days. The method, then:
PBMCs from two individuals were co-cultured in the presence of varying concentrations of JO-4 for 5 days. […] Cytotoxic T lymphocytes (CTLs) were generated from one-way MLR in the absence or presence of JO-4 for 5-7 days. At the end of culture, CTLs were harvested and tested in a four hour ^51Cr-release assay against activated lymphocytes which were used as stimulators in the one-way MLR. […] Human PBMCs were cultured with 5 µg/ml LPS in the absence or presence of 1.0 µg/ml JO-4 in 24-well microtiter plates for 24 hours. At the end of culture, supernatants were harvested and tested by EIA for the presence of IL-1β, TNF-α, and IL-6. […] PBMCs from two individuals were co-cultured in the absence or presence of varying concentrations of JO-4A for 5 days. […] Antiviral effects of JO-4 on HSV-2 were determined as described in Figure 16A. • Figure 17A and 17B show the results of toxicity testing of JO-4 and JO-4A on normal, uninfected African green monkey kidney cells (CV-1), respectively. […] Cytotoxicity was determined by colorimetric (MTT) assay.
Peripheral Blood Mononuclear cells (PBMCs): Heparinized venous blood was obtained from healthy adult volunteers and PBMCs were separated by centrifugation over Ficoll-Hypaque (Pharmacia Biotech, Piscataway, NJ). […] Cell viability was assessed by trypan blue dye exclusion test and the cell number was adjusted to required concentration.

Consider 1 compound from EP0986381B1, “USE OF DITERPENES LIKE HYPOESTOXIDES FOR THE MANUFACTURE OF A MEDICAMENT FOR IMMUNOSUPPRESSION, ANTICANCER AND ANTIVIRAL TREATMENT” (Immune Modulation, Inc., priority 1997, dated 1998).

Turning to `C=C1C(=O)CC2CC3OC3(C)CCC3OC3(C)CC(O)C1C2(C)C` (stereo not shown) [JO-4A], the survival of mice in the data set on B16-F1 melanoma tumor (0.1 mg/Kg orally daily day 4 to day 20) was 17%; with B16-F1 melanoma tumor (0.5 mg/Kg orally daily day 4 to day 20) it was 60%; in the data set with B16-F1 melanoma tumor (1 mg/Kg orally daily day 4 to day 20), 67%; with B16-F1 melanoma tumor (2 mg/Kg orally daily day 4 to day 20), 84%. In the data set with B16-F1 melanoma tumor (2 mg/Kg orally, treatment stopped on day 20), the “survival compared with non-treated group” value was “survived longer”. Besides, the tumor volume result with B16-F1 melanoma tumor (oral, daily from day 4 post tumor implantation, all four concentrations tested, measured day 12) is listed as “significantly reduced”. In addition, the “toxic effect on cultured human PBMC” value in data set [1] was “no toxic effect”.
